According to patent US20220363686A1 (AiCuris GmbH & Co. KG, priority 2018, published 2022):

Legend:
HBV = assay: Determination of HBV DNA from the supernatants of HepAD38 cells (anti-HBV activity); type: cell-based, hepatitis B virus; settings: Hepatitis B virus, HePAD38, 144 h, HBV DNA in HepAD38 supernatant, day 6, qPCR; read-out: Cell Activity
Summary of the method: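 EC50 derived by non-linear regression of relative HBV DNA copy numbers, measured by qPCR (plasmid standards) in day-6 filtered supernatants. Before this, HepAD38 cells were exposed to serial half-log compound dilutions without tetracycline, releasing viral expression; cultures kept at 37 °C, 5% CO2.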

[1] = Cell viability assay (AlamarBlue); settings: human, HepAD38 cells
[2] = target: HBV core protein (C-terminal truncated core protein containing 149 amino acids of the N-terminal assembly domain) (UniProt P03146); assay: Biochemical capsid assembly assay (fluorescence quenching); set-up: rows headed: Assembly Activity; other: BODIPY-FL labelled core protein, assembly started with NaCl, read after 6 min; settings: read-out: Assembly Activity; BODIPY-FL labelled core protein, assembly started with NaCl, read after 6 min
Summary of the method: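 N-terminal assembly domain (residues 1–149) plus C-terminal Cys150, E. coli-expressed, BODIPY-FL-maleimide labelled, used at 1.0–2.0 μM in 50 mM HEPES pH 7.5 with 0.5% DMSO. Assembly started with NaCl ([…]); fluorescence quenching (ex 477/em 525 nm) read after 6 min. 8-point compound series; EC50 by non-linear regression.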

Chain of HBV core protein (C-terminal truncated core protein containing 149 amino acids of the N-terminal assembly domain) (P03146 whole entry, the tested form may be a part): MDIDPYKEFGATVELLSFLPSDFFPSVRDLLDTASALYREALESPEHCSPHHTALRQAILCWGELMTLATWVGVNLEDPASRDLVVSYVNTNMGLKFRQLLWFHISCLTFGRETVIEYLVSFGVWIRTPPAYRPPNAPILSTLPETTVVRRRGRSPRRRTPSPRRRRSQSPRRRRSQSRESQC

COCC1(N(C)C(=O)c2cnn3c2CN(C(=O)c2cc4c(F)cc(F)cc4[nH]2)CC3)CC1 [Example 8, 5-(4,6-difluoro-1H-indole-2-carbonyl)-N-[1-(methoxymethyl)cyclopropyl]-N-methyl-4H,5H,6H,7H-pyrazolo[1,5-a]pyrazine-3-carboxamide] showed an EC50 (HBV) of less than 1000 nM, a CC50 at 6 days [1] greater than 10 µM and an IC50 [2] of less than 5 µM.
For O=C(c1cc2ccccc2[nH]1)N1CCn2ncc(S(=O)(=O)N3CCC(O)CC3)c2C1 [Example 35, 1-{[5-(1H-indole-2-carbonyl)-4H,5H,6H,7H-pyrazolo[1,5-a]pyrazin-3-yl]sulfonyl}piperidin-4-ol], the EC50 (HBV) was less than 1000 nM, the CC50 at 6 days [1] was greater than 10 µM and the IC50 [2] was less than 5 µM.
O=C(NC1(COC(F)F)CC1)c1cnn2c1CN(C(=O)c1cc3cc(F)c(F)cc3[nH]1)CC2 [Example 139, 5-(5,6-difluoro-1H-indole-2-carbonyl)-N-{1-[(difluoromethoxy)methyl]cyclopropyl}-4H,5H,6H,7H-pyrazolo[1,5-a]pyrazine-3-carboxamide] gave an EC50 (HBV) of less than 1000 nM, a CC50 at 6 days [1] greater than 10 µM and an IC50 [2] of less than 5 µM.
With C[C@H](NC(=O)c1cnn2c1CN(C(=O)c1cc3ccccc3[nH]1)CC2)C(F)(F)F [Example 78, 5-(1H-indole-2-carbonyl)-N-[(2S)-1,1,1-trifluoropropan-2-yl]-4H,5H,6H,7H-pyrazolo[1,5-a]pyrazine-3-carboxamide] the EC50 (HBV) was less than 1000 nM, the CC50 at 6 days [1] was greater than 10 µM and the IC50 [2] was less than 5 µM.
Cc1c(F)ccc2[nH]c(C(=O)N3CCn4ncc(C(=O)N5CCCOCC56CC6)c4C3)cc12 [Example 108, 4-[5-(5-fluoro-4-methyl-1H-indole-2-carbonyl)-4H,5H,6H,7H-pyrazolo[1,5-a]pyrazine-3-carbonyl]-8-oxa-4-azaspiro[2.6]nonane] showed an EC50 (HBV) of less than 1000 nM, a CC50 at 6 days [1] greater than 10 µM and an IC50 [2] of less than 5 µM.
In the case of CN(C(=O)c1cnn2c1CN(C(=O)c1cc3c(Cl)c(F)ccc3[nH]1)CC2)C1(CO)CC1 [Example 96, 5-(4-chloro-5-fluoro-1H-indole-2-carbonyl)-N-[1-(hydroxymethyl)cyclopropyl]-N-methyl-4H,5H,6H,7H-pyrazolo[1,5-a]pyrazine-3-carboxamide], the EC50 (HBV) is reported as less than 1000 nM, the CC50 at 6 days [1] is reported as greater than 10 µM and the IC50 [2] is reported as less than 5 µM.
Work on CC1Cn2ncc(C(=O)N[C@H](C)C(F)(F)F)c2CN1C(=O)c1cc2cc(F)c(Cl)cc2[nH]1 (stereo partly drawn) [Example 147, 5-(6-chloro-5-fluoro-1H-indole-2-carbonyl)-6-methyl-N-[(2R)-1,1,1-trifluoropropan-2-yl]-4H,5H,6H,7H-pyrazolo[1,5-a]pyrazine-3-carboxamide] yielded an EC50 (HBV) of less than 1000 nM, a CC50 at 6 days [1] greater than 10 µM and an IC50 [2] of less than 5 µM.
For O=C(c1cc2cc(Cl)c(F)cc2[nH]1)N1CCn2ncc(C(=O)N3CCCOCC34CC4)c2C1 [Example 111, 4-[5-(5-chloro-6-fluoro-1H-indole-2-carbonyl)-4H,5H,6H,7H-pyrazolo[1,5-a]pyrazine-3-carbonyl]-8-oxa-4-azaspiro[2.6]nonane], the EC50 (HBV) was less than 1000 nM, the CC50 at 6 days [1] was greater than 10 µM and the IC50 [2] was less than 5 µM.
CN(Cc1ccccn1)C(=O)c1cnn2c1CN(C(=O)c1cc3ccccc3[nH]1)CC2 [Example 44, 5-(1H-indole-2-carbonyl)-N-methyl-N-[(pyridin-2-yl)methyl]-4H,5H,6H,7H-pyrazolo[1,5-a]pyrazine-3-carboxamide] showed an EC50 (HBV) of less than 1000 nM, a CC50 at 6 days [1] greater than 10 µM and an IC50 [2] of less than 5 µM.
In the case of CN(C(=O)c1cnn2c1CN(C(=O)c1cc3ccccc3[nH]1)CC2)C1(C)COC1 [Example 136, 5-(1H-indole-2-carbonyl)-N-methyl-N-(3-methyloxetan-3-yl)-4H,5H,6H,7H-pyrazolo[1,5-a]pyrazine-3-carboxamide], the EC50 (HBV) is reported as 1000 to 10000 nM, the CC50 at 6 days [1] is reported as greater than 10 µM and the IC50 [2] is reported as less than 5 µM.
With COCC1(CNC(=O)c2cnn3c2CN(C(=O)c2cc4ccccc4[nH]2)CC3)CC1 [Example 10, 5-(1H-indole-2-carbonyl)-N-{[1-(methoxymethyl)cyclopropyl]methyl}-4H,5H,6H,7H-pyrazolo[1,5-a]pyrazine-3-carboxamide] the EC50 (HBV) was 1000 to 10000 nM, the CC50 at 6 days [1] was greater than 10 µM and the IC50 [2] was 5 to 10 µM.
CN(C(=O)c1cnn2c1CN(C(=O)c1cc3ccccc3[nH]1)CC2)C1(CCOC(F)F)CCC1 [Example 126, N-{1-[2-(difluoromethoxy)ethyl]cyclobutyl}-5-(1H-indole-2-carbonyl)-N-methyl-4H,5H,6H,7H-pyrazolo[1,5-a]pyrazine-3-carboxamide] gave an EC50 (HBV) of 1000 to 10000 nM, a CC50 at 6 days [1] greater than 10 µM and an IC50 [2] of less than 5 µM.
In the case of O=C(NC1(COC(F)F)CC1)c1cnn2c1CN(C(=O)c1cc3c(F)c(F)ccc3[nH]1)CC2 [Example 104, 5-(4,5-difluoro-1H-indole-2-carbonyl)-N-{1-[(difluoromethoxy)methyl]cyclopropyl}-4H,5H,6H,7H-pyrazolo[1,5-a]pyrazine-3-carboxamide], the EC50 (HBV) is reported as less than 1000 nM, the CC50 at 6 days [1] is reported as greater than 10 µM and the IC50 [2] is reported as less than 5 µM.
CNS(=O)(=O)c1cnn2c1CN(C(=O)c1cc3ccccc3[nH]1)CC2 [Example 41, 5-(1H-indole-2-carbonyl)-N-methyl-4H,5H,6H,7H-pyrazolo[1,5-a]pyrazine-3-sulfonamide] showed an EC50 (HBV) of less than 1000 nM, a CC50 at 6 days [1] greater than 10 µM and an IC50 [2] of less than 5 µM.
O=C(c1cc2ccccc2[nH]1)N1CCn2ncc(C(=O)N3CCC(F)(F)C3)c2C1 [Example 122, 2-[3-(3,3-difluoropyrrolidine-1-carbonyl)-4H,5H,6H,7H-pyrazolo[1,5-a]pyrazine-5-carbonyl]-1H-indole] showed an EC50 (HBV) of less than 1000 nM, a CC50 at 6 days [1] greater than 10 µM and an IC50 [2] of less than 5 µM.
CN(C(=O)c1cnn2c1CN(C(=O)c1cc3ccccc3[nH]1)CC2)C1(CNCC(F)(F)F)CC1 [Example 80, 5-(1H-indole-2-carbonyl)-N-methyl-N-(1-{[(2,2,2-trifluoroethyl)amino]methyl}cyclopropyl)-4H,5H,6H,7H-pyrazolo[1,5-a]pyrazine-3-carboxamide] gave an EC50 (HBV) of less than 1000 nM, a CC50 at 6 days [1] greater than 10 µM and an IC50 [2] of less than 5 µM.
For O=C(c1cc2ccccc2[nH]1)N1CCn2ncc(C(=O)N3CCCOCC34CC4)c2C1 [Example 67, 4-[5-(1H-indole-2-carbonyl)-4H,5H,6H,7H-pyrazolo[1,5-a]pyrazine-3-carbonyl]-8-oxa-4-azaspiro[2.6]nonane], the EC50 (HBV) was less than 1000 nM, the CC50 at 6 days [1] was greater than 10 µM and the IC50 [2] was less than 5 µM.
Work on O=C(c1cc2ccccc2[nH]1)N1CCn2ncc(C3CCC3)c2C1 [Example 6, 2-{3-cyclobutyl-4H,5H,6H,7H-pyrazolo[1,5-a]pyrazine-5-carbonyl}-1H-indole] yielded an EC50 (HBV) of less than 1000 nM, a CC50 at 6 days [1] greater than 10 µM and an IC50 [2] of less than 5 µM.
Work on CC(C)NS(=O)(=O)c1cnn2c1CN(C(=O)c1cc3ccccc3[nH]1)CC2 [Example 37, 5-(1H-indole-2-carbonyl)-N-(propan-2-yl)-4H,5H,6H,7H-pyrazolo[1,5-a]pyrazine-3-sulfonamide] yielded an EC50 (HBV) of less than 1000 nM, a CC50 at 6 days [1] greater than 10 µM and an IC50 [2] of less than 5 µM.
For O=C(c1cc2ccccc2[nH]1)N1CCn2ncc(C3CCCO3)c2C1 (stereo not drawn) [Example 73, 2-[3-(oxolan-2-yl)-4H,5H,6H,7H-pyrazolo[1,5-a]pyrazine-5-carbonyl]-1H-indole], the EC50 (HBV) was less than 1000 nM, the CC50 at 6 days [1] was greater than 10 µM and the IC50 [2] was less than 5 µM.
O=C(c1cc2ccccc2[nH]1)N1CCn2ncc(C(=O)N3CCC(OC(F)F)CC34CC4)c2C1 (stereo not drawn) [Example 59, 2-{3-[7-(difluoromethoxy)-4-azaspiro[2.5]octane-4-carbonyl]-4H,5H,6H,7H-pyrazolo[1,5-a]pyrazine-5-carbonyl}-1H-indole] gave an EC50 (HBV) of less than 1000 nM, a CC50 at 6 days [1] greater than 10 µM and an IC50 [2] of less than 5 µM.
